# US20090082271A1, “AGENTS THAT REDUCE APOE-INDUCED IMPAIRMENT OF MITOCHONDRIA AND METHODS OF USE THEREOF” (priority 2005, published 2009)
# Entries after “also recorded” stand apart in the source; their conditions may differ.
# Assays:
# [1] = system: differentiated PC12 cells; test: Time-lapse fluorescence recording of mitochondrial motility and morphology in neurites of differentiated PC12 cells (dsRed2-Mito); conditions: for mitochondrial motility increased: nimodipine 5 μM and AP5 50 μM together (both antagonists), with different forms of apoE; for reduction of percentage of motile mitochondria in response to neuronal activation: apoE 7.5 μg/ml 24 h, then repetitive depolarizations with KCl
# [2] = system: rat primary hippocampal neurons; assay type: cell-based; conditions: apoE 7.5 μg/ml, 24 h
# Description: FIGS. 12A and 12B. […] Scale bar=5 μm.
# [3] = system: PC12 cells stably expressing various forms of apoE; test: Mitochondrial dynamics in differentiated PC12 cells stably expressing various forms of apoE; assay type: cell-based, rat; conditions: endogenous (stably expressed) apoE, ~200 pg apoE per μg cellular protein; vs control
# [4] = system: rat primary cortical neurons
# primary cortical neurons = test: Number, occupancy and size of mitochondria in dendrites of primary cortical neurons; assay type: cell-based, rat; conditions: vs apoE3-treated cells or controls
# Neuro-2a cells = test: MTT cell survival assay of Neuro-2a cells transiently transfected with apoE4 cDNA constructs; assay type: cell-based, mouse; conditions: expressed by transient transfection; 48 h after transfection; vs WT apoE4 / apoE4(1-272)
# Protocol: Cell Culture and Transfection. […] ApoE4 expression levels were determined by anti-apoE western blotting of cell lysates and media. […] Thus, the results are not due to overexpression.
# Cell Survival. […] Cell survival was estimated with an MTT colorimetric assay (52) 48 h after transfection.
# [5] = repetitive depolarization with KCl 90 mM
compound,measurement,setting,value
"NC(CCCP(=O)(O)O)C(=O)O (stereo not drawn) [AP5, 2-amino-5-phosphonovalerate]",mitochondrial motility increased,[1]; 24 h,about 30%
[Cl-].[K+] [KCl],average moving velocity (anterograde direction),[1]; [5],drastically reduced
same,mitochondrial moving velocity (distance/time moving),[1]; [5],unaltered; also recorded: did not affect
same,net moving distance (anterograde direction),[1]; [5],drastically reduced
same,retrograde motility,[1]; [5],No significant changes
same,mitochondrial index reduced,"[1]; repetitive depolarizations with KCl (4×, 90 mM)",22.5%
apoE3: recombinant apolipoprotein E3 isoform; also stably expressed in PC12 cells,density of dendritic spines increased vs controls,[2],11±4%
same,percentage of motile mitochondria reduced,[3],unaffected
same,density of dendritic spines increased vs controls,"[4]; apoE 7.5 μg/ml, 24 h",20±6%
same,reduction of percentage of motile mitochondria in response to neuronal activation,[1],58±6%
same,average length of mitochondria,"[1]; exogenous apoE 7.5 μg/ml, 24 h",did not
same,mitochondrial motility / dynamics overall,"[1]; exogenous apoE 7.5 μg/ml, 24 h",not affected
same,mitochondrial motility / dynamics overall,"[1]; exogenous apoE 7.5 μg/ml, 24 h, listed as ApoE3",did not alter mitochondrial dynamics significantly
apoE4: full-length human apolipoprotein E4 (SEQ ID NO:1); expressed from cDNA or added as recombinant protein,density of dendritic spines decreased vs controls,[2],19±5%
same,density of dendritic spines reduced compared with apoE3,[2],28±4%
same,number of mitochondria in dendritic spines,primary cortical neurons,many fewer mitochondria
same,"spinal density reduced in response to neuronal activation, compared to controls","[4]; apoE 7.5 μg/ml 24 h, repetitive KCl depolarization",48±11%
same,density of dendritic spines decreased vs controls,"[4]; apoE 7.5 μg/ml, 24 h",13±5%
same,density of dendritic spines reduced compared with apoE3,"[4]; apoE 7.5 μg/ml, 24 h",27±5%
same,reduction of percentage of motile mitochondria in response to neuronal activation,[1],30%
same,average length of mitochondria,"[1]; exogenous apoE 7.5 μg/ml, 24 h",significantly reduced
same,retrograde velocity,"[1]; exogenous apoE 7.5 μg/ml, 24 h",unaffected
L279Q: full-length WT apoE4 with single mutation L279Q,"neurotoxicity (cell survival, MTT assay)",Neuro-2a cells,as neurotoxic as apoE4(1-272)
"NC1=N[C@H](O)[C@H]2[C@H]3O[C@]4(O)O[C@@H]([C@@H](O)[C@@]2(N1)[C@@H]4O)[C@]3(O)CO [TTX, tetrodotoxin]",differences in dendritic spine density between forms of apoE in the presence of TTX,[4],No significant differences
same,differences in mitochondrial dynamics between forms of apoE in the presence of TTX,[1],No significant differences
same,mitochondrial dynamics,[1],increased
same,mitochondrial index,[1],without affecting; also recorded: not affected
Q284A: full-length WT apoE4 with single mutation Q284A,"neurotoxicity (cell survival, MTT assay)",Neuro-2a cells,as neurotoxic as apoE4(1-272)
"aa241-272 of apoE4: lipid binding region alone of apoE4 (AKLEEQAQQIRLQAEAFQARLKSWFEPLVEDM; UniProt P02649 259-290, looked up, fragment)","neurotoxicity (cell survival, MTT assay)",Neuro-2a cells,No neurotoxicity was observed
COCCOC(=O)C1=C(C)NC(C)=C(C(=O)OC(C)C)C1c1cccc([N+](=O)[O-])c1 (stereo not drawn) [nimodipine],mitochondrial motility increased,[1]; 24 h,about 30%
